The target of assay [1] is T1, NK3 receptors (Homo sapiens, UniProt P29371).
T1 construct: expressed in transfected cells
T1 sequence (P29371 1-465): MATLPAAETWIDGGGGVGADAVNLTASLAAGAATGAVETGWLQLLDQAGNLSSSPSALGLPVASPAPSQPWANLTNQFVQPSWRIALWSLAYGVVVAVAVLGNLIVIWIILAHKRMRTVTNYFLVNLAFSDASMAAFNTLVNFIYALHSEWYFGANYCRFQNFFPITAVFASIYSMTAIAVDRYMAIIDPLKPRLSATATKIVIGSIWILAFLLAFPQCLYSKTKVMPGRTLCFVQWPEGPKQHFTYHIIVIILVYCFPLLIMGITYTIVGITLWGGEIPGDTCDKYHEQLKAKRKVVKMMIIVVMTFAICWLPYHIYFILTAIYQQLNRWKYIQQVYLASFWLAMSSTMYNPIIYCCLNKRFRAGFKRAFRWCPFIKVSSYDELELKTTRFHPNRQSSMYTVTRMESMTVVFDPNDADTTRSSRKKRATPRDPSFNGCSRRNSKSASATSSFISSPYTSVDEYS
Description: Calcium ion fluidity (FLIPR) in cells with stable expression of NK3 receptors. In kind it is cell-based. To be noted: calcium signal, antagonist mode, read-out: NK3R IC50 (nM) FLIPR. From the text:
Determination of the Effect of the Compounds of the Present Invention on Calcium Ion Fluidity in Cells with Stable Expression of NK3 Receptors
Experimental objective: The objective of this test example was to determine the inhibitory effect of the compounds on NK3 receptors.
Experimental Methods: • 1. […] Probenecid and BSA were freshly added on the day of the experiment. The buffers for the experiments included dye buffer, compound dilution buffer and the like. • 2. […] The culture medium was discarded, and 20 μL of dye was added. The cells were incubated at 37° C. in the dark for 60 min, and then the calcium signal was read. • 4. The antagonist was prepared before the experiments. […] The plate was transferred to FLIPR, and 6× concentration of the agonist compound was added at 5 μL/well. The values were read and the data were saved by using FLIPR. The total assay volume was 30 μL, comprising 20 μL/well of dye buffer, 5 μL/well of 5× concentration of the experimental compound, and 5 μL/well of 6× concentration of the agonist compound.
The calcium signal value was read by FLIPR. The output of each sampling time point in the experiment was calculated as the ratio of the signals at wavelengths of 340/510 nm to 380/510 nm. The maximum minus minimum value was calculated from the ratio signal curve. The IC50 value of the compound was calculated by fitting the data of inhibition rate percentage and ten concentrations to the parametric nonlinear logistic equation by using GraphPad prism.

The target in assay [2] is T1, NK3 receptors. The assay can be described thus: Antagonism of IP1 in HEK293 cells with stable expression of NK3. In kind it is cell-based. To be noted: agonist Senktide 3 nM, read-out: NK3R IC50 (nM) IP1. As to the method:
Determination of the Effect of the Compounds of the Present Invention on IP1 in HEK293 Cells with Stable Expression of NK3
The objective of this test example was to determine the antagonism effect of the compounds on the activity of HEK293-NK3 cells.
3. Experimental Methods: • 1. […] HEK293-NK3 cell line was cultured in complete medium and seeded in the coated dishes at 37° C., 5% CO2 until 70%˜90% confluence. • 3. […] The cells were digested and resuspended in 1× Stimulation Buffer (IP-ONE Gq Kit), seeded into the 384-well cell culture plate (which contained the compound to be tested) at 5,000 cells/well/5 μL by using Multidrop Combi. The culture plate was centrifuged at 300 rpm at room temperature for 60 seconds, and then incubated at 37° C., 5% CO2 for 15 minutes. • 5. The cell culture plate was taken out from the CO2 incubator. […] The culture plate was centrifuged at 300 rpm at room temperature for 60 seconds, and then incubated at 37° C., 5% CO2 for 2 hours. • 6. The cell culture plate was taken out from the CO2 incubator. 5 μL of IP1 d2 reagent and then 5 μL of IP1 Tb Cryptate Antibody reagent were added by using Multidrop Combi. The culture plate was centrifuged at room temperature at 300 rpm for 60 seconds, and left to stand at room temperature for 1 hour. • 7. The plate was read by using EnVision Multilabel Reader, and data were collected at the same time.
The fluorescence signal ratio (Ratio) was read and collected by EnVision Multilabel Reader. According to the readings of the Low control (DMSO control) and High control (p)ositive compound) experimental groups, the antagonism percentage data were calculated as {% antagonism=(Ratio sample−Ratio low control)/(Ratio high control−Ratio low control)×100}.

Consider 21 compounds from patent US20230271969A1, “NITROGEN-CONTAINING FUSED RING DERIVATIVE INHIBITOR, PREPARATION METHOD THEREFOR AND USE THEREOF” (Shanghai Hansoh Biomedical Co., Ltd., priority 2020, published 2023).

A word on the IC50: it is the concentration at which inhibition is half-maximal. For the compound `C[C@@H]1c2nnc(-c3nc4cc(F)cc(F)c4s3)n2CCN1C(=O)c1ccc(F)cc1` [Example 18, (R)-(3-(5,7-Difluorobenzo[d]thiazol-2-yl)-8-methyl-5,6-dihydro-[1,2,4]triazolo[4,3-a]pyrazin-7(8H)-yl)(4-fluorophenyl)methanone], at NK3 receptors [1], the IC50 is 130 nM. Regarding `[2H]c1cc(C(=O)N2CCn3c(-c4nc5ccc(Cl)cc5s4)nnc3[C@H]2C)ccc1F` [Example 103, (R)-(3-(6-Chlorobenzo[d]thiazol-2-yl)-8-methyl-5,6-dihydro-[1,2,4]triazolo[4,3-a]pyrazin-7(8H)-yl)(4-fluorophenyl-3-d)methanone], the IC50 at NK3 receptors [2] was 16 nM; at NK3 receptors [1], 27.1 nM. On the same counts, the results for `COc1ccc2nc(-c3nnc4n3CCN(C(=O)c3ccc(Cl)cc3)[C@@H]4C)sc2c1` [Example 30, (R)-(4-Chlorophenyl)(3-(6-methoxybenzo[d]thiazol-2-yl)-8-methyl-5,6-dihydro-[1,2,4]triazolo[4,3-a]pyrazin-7(8H)-yl)methanone] are 187 nM and 47.4 nM.

As for `C[C@@H]1c2nnc(-c3nc4sccc4s3)n2CCN1C(=O)c1ccc(F)cc1` [Example 40, (R)-(4-Fluorophenyl)(8-methyl-3-(thieno[2,3-d]thiazol-2-yl)-5,6-dihydro-[1,2,4]triazolo[4,3-a]pyrazin-7(8H)-yl)methanone], the IC50 at NK3 receptors [1] stood at 298 nM. On to `[2H]c1cc(C(=O)N2CCn3c(-c4nc(N5CC(F)C5)cs4)nnc3[C@H]2C)ccc1F` [Example 117, (R)-(3-(4-(3-Fluoroazetidin-1-yl)thiazol-2-yl)-8-methyl-5,6-dihydro-[1,2,4]triazolo[4,3-a]pyrazin-7(8H)-yl)(4-fluorophenyl-3-d)methanone], for which, on NK3 receptors [2], the IC50 stood at 116 nM.

For the compound `[2H]c1cc(C(=O)N2CCn3c(-c4nc5ccc(F)cc5s4)nnc3[C@H]2C)ccc1Cl` [Example 101, (R)-(4-Chlorophenyl-3-d)(3-(6-fluorobenzo[d]thiazol-2-yl)-8-methyl-5,6-dihydro-[1,2,4]triazolo[4,3-a]pyrazin-7(8H)-yl)methanone], the concentration for half-maximal inhibition (IC50) is 61 nM on NK3 receptors [2] and 86.7 nM on NK3 receptors [1].

Consider `Cc1cccc2cc(-c3nnc4n3CCN(C(=O)c3ccc(Cl)c(Cl)c3)[C@@H]4C)nn12` [Example 49, (R)-(3,4-Dichlorophenyl)(8-methyl-3-(7-methylpyrazolo[1,5-a]pyridin-2-yl)-5,6-dihydro-[1,2,4]triazolo[4,3-a]pyrazin-7(8H)-yl)methanone], for which the IC50 was 135 nM on NK3 receptors [2] and 86.7 nM at NK3 receptors [1].

Take `C[C@@H]1c2nnc(-c3nc4ccc(Cl)cc4s3)n2CCN1C(=O)c1ccc(Cl)cc1` [Example 20, (R)-(3-(6-Chlorobenzo[d]thiazol-2-yl)-8-methyl-5,6-dihydro-[1,2,4]triazolo[4,3-a]pyrazin-7(8H)-yl)(4-chlorophenyl)methanone]: the figures for the concentration for half-maximal inhibition (IC50) on NK3 receptors [2] and on NK3 receptors [1] were 27.3 nM and 61 nM, respectively. Turning to `COc1ccc2nc(-c3nnc4n3CCN(C(=O)c3ccc(F)cc3)[C@@H]4C)sc2c1` [Example 29, (R)-(4-Fluorophenyl)(3-(6-methoxybenzo[d]thiazol-2-yl)-8-methyl-5,6-dihydro-[1,2,4]triazolo[4,3-a]pyrazin-7(8H)-yl)methanone], the figures for the half-inhibitory concentration (IC50) at NK3 receptors [2] and at NK3 receptors [1] were 29 nM and 65.8 nM, respectively. For `COc1ccc2nc(-c3nnc4n3CCN(C(=O)c3ccc(Cl)c(Cl)c3)[C@@H]4C)sc2c1` [Example 31, (R)-(3,4-Dichlorophenyl)(3-(6-methoxybenzo[d]thiazol-2-yl)-8-methyl-5,6-dihydro-[1,2,4]triazolo[4,3-a]pyrazin-7(8H)-yl)methanone], the half-maximal inhibitory concentration (IC50) on NK3 receptors [2] came out at 43.2 nM; at NK3 receptors [1] it was 86.7 nM. Take `[2H]C([2H])([2H])N(c1nsc(-c2nnc3n2CCN(C(=O)c2ccc(F)cc2)[C@@H]3C)n1)C([2H])([2H])[2H]` [Example 106, (R)-(3-(3-(Bis(methyl-d3)amino)-1,2,4-thiadiazol-5-yl)-8-methyl-5,6-dihydro-[1,2,4]triazolo[4,3-a]pyrazin-7(8H)-yl)(4-fluorophenyl)methanone]: the half-maximal inhibitory concentration (IC50) at NK3 receptors [2] amounted to 129 nM. As to `C[C@@H]1c2nnc(-c3nc4c(F)cc(F)cc4s3)n2CCN1C(=O)c1ccc(Cl)cc1` [Example 16, (R)-(4-Chlorophenyl)(3-(4,6-difluorobenzo[d]thiazol-2-yl)-8-methyl-5,6-dihydro-[1,2,4]triazolo[4,3-a]pyrazin-7(8H)-yl)methanone], on NK3 receptors [2], the concentration for half-maximal inhibition (IC50) stood at 146 nM. For `[2H]c1cc(C(=O)N2CCn3c(-c4nc(Cl)cs4)nnc3[C@H]2C)ccc1F` [Example 121, (R)-(3-(4-Chlorothiazol-2-yl)-8-methyl-5,6-dihydro-[1,2,4]triazolo[4,3-a]pyrazin-7 (8H)-yl)(4-fluorophenyl-3-d)methanone], the IC50 on NK3 receptors [2] came to 132 nM. On to `[2H]c1c([2H])c(C(=O)N2CCn3c(-c4nc(C([2H])([2H])[2H])ns4)nnc3[C@H]2C)c([2H])c([2H])c1F` [Example 50, (R)-(4-Fluorophenyl-2,3,5,6-d4)(8-methyl-3-(3-(methyl-d3)-1,2,4-thiadiazol-5-yl)-5,6-dihydro-[1,2,4]triazolo[4,3-a]pyrazin-7(8H)-yl)methanone], for which the IC50 at NK3 receptors [1] came out at 147 nM. Take `C[C@@H]1c2nnc(-c3nc4ccccc4s3)n2CCN1C(=O)c1ccc(F)cc1` [Example 1, (R)-(3-(Benzo[d]thiazol-2-yl)-8-methyl-5,6-dihydro-[1,2,4]triazolo[4,3-a]pyrazin-7 (8H)-yl)(4-fluorophenyl)methanone]: on NK3 receptors [1], the IC50 stood at 76.2 nM. With `C[C@@H]1c2nnc(-c3nc4ccccc4s3)n2CCN1C(=O)c1ccc(-c2cccs2)cc1` [Example 5, (R)-(3-(Benzo[d]thiazol-2-yl)-8-methyl-5,6-dihydro-[1,2,4]triazolo[4,3-a]pyrazin-7 (8H)-yl)(4-(thien-2-yl)phenyl)methanone], the half-inhibitory concentration (IC50) on NK3 receptors [1] amounted to 159 nM. The same measure, in the same setting: with `C[C@@H]1c2nnc(-c3nc4ccc(Cl)nc4s3)n2CCN1C(=O)c1ccc(F)cc1` [Example 38] the figure was 247 nM. For the compound `C[C@@H]1c2nnc(-c3nc(N(C)C4CC4)ns3)n2CCN1C(=O)c1ccc(F)cc1` [Example 115, (R)-(3-(3-(Cyclopropyl(methyl)amino)-1,2,4-thiadiazol-5-yl)-8-methyl-5,6-dihydro-[1,2,4]triazolo[4,3-a]pyrazin-7(8H)-yl)(4-fluorophenyl)methanone], on NK3 receptors [2], the IC50 amounted to 76.6 nM. Turning to `C[C@@H]1c2nnc(-c3nc4sccc4s3)n2CCN1C(=O)c1ccc(Cl)cc1` [Example 41, (R)-(4-Chlorophenyl)(8-methyl-3-(thieno[2,3-d]thiazol-2-yl)-5,6-dihydro-[1,2,4]triazolo[4,3-a]pyrazin-7(8H)-yl)methanone], the 50% inhibitory concentration (IC50) on NK3 receptors [1] stood at 224 nM.

Consider `C[C@@H]1c2nnc(-c3cc4ccccn4n3)n2CCN1C(=O)c1ccc(Cl)c(Cl)c1` [Example 46, (R)-(3,4-Dichlorophenyl)(8-methyl-3-(pyrazolo[1,5-a]pyridin-2-yl)-5,6-dihydro-[1,2,4]triazolo[4,3-a]pyrazin-7(8H)-yl)methanone], for which, on NK3 receptors [1], the IC50 was determined as 107 nM. Still for that read-out and setting: for `C[C@@H]1c2nnc(-c3nc4ccsc4s3)n2CCN1C(=O)c1ccc(Cl)c(Cl)c1` [Example 44, (R)-(3,4-Dichlorophenyl)(8-methyl-3-(thieno[3,2-d]thiazol-2-yl)-5,6-dihydro-[1,2,4]triazolo[4,3-a]pyrazin-7(8H)-yl)methanone] the value was 255 nM.
